The source of these data is article PMC2888647 (Journal of medicinal chemistry, 2009).

For series [1] the following is noted: estimated; cited from earlier work.
For the next series, the target named is T1, recombinant human sEH (Homo sapiens, UniProt P34913).
T1 sequence (P34913 1-555): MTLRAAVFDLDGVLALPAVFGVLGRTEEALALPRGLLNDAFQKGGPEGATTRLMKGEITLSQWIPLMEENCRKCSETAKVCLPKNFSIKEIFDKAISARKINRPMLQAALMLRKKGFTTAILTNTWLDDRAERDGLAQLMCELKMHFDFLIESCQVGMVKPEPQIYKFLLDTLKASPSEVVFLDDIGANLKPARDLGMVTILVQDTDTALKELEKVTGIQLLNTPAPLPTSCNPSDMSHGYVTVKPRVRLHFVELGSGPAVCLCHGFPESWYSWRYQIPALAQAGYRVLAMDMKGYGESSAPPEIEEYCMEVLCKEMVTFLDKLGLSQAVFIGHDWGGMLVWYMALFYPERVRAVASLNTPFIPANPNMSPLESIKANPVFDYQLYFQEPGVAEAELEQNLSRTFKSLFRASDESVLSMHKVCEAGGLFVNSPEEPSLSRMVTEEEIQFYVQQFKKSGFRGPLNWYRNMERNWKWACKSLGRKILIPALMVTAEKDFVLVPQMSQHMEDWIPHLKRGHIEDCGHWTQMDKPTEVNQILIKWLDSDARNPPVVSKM
The series is classed as biochemical. Particulars: relative to compound 1.

Take `CCCCC[C@@H]1O[C@@H]1C/C=C\C/C=C\C/C=C\CCCC(=O)O` [14,15-EET, cis-14,15-epoxyeicosa-5(Z),8(Z),11(Z)-trienoic acid]: the in vivo half-life result in series [1] is listed as “a few seconds to minutes”. As for `CCCCCNC(=S)NCCCC/C=C\CCCCCCC(=O)O` [Compd 5, 13-(3-n-Pentylthioureido)tridec-8(Z)-enoic acid], on recombinant human sEH, the “decline of sEHi, factor with respect to 1” value came to 16.
